Laboratory results published in patent publication US5130339A, “Phenylethanolaminomethyltetralins and pharmaceutical use” (Sanofi, priority 1989, dated 1992).
pEC50: −log10 of the molar value.

Tests used:
[1] = system: isolated proximal colon rat strips; experiment: Reduction of spontaneous contractile activity of isolated proximal colon rat strips (in vitro); format: cell-based; conditions: Krebs-Ringer, 37° C., read-out: EC50, on colon (concentration effective to reduce by 50% the contractile activity observed in controls)
Text: In particular, their effects in reducing colon spontaneous motility have been observed in in vitro normalized pharmacological tests and has been confirmed in the animal in vivo.
In the in vitro tests, the capability of different concentrations of the phenylethanolaminomethyltetralins of the present invention to reduce, under particular normalised conditions, the spontaneous contractile activity of isolated proximal colon rat strips has been evaluated.
Not fasted male rats weighing 250-300 g are sacrificed. The proximal part of the colon, approximately a 2 to 3 cm segment, is removed and suspended in a 20-ml organ bath containing oxygenated (5% CO2, 95% O2) Krebs-Ringer solution with the following mM composition: NaCl 118.4; KCl 4.7; CaCl2 2.45; MgSO4 1.16; NaH2 PO4 3.7; glucose 5.6; NaHCO3 30.9, kept at a constant temperature of 37° C. The colon strips submitted to a 1 g traction spontaneously contract. The test compounds are added thereto after stabilisation of the preparation (2h).
The EC50, i.e. the concentration which is effective to reduce by 50% the contractile activity observed in controls, is determined.

[2] = system: isolated rat uterus; experiment: Effect on spontaneous uterus motility, same general method on isolated rat uterus (in vitro); format: cell-based; conditions: for selectivity ratio (EC50 uterus / EC50 colon): colon versus uterus; for pEC50: isolated rat uterus, spontaneous motility

pEC50 [1] | pEC50 [2] | SMILES | selectivity ratio (EC50 uterus / EC50 colon) [2]
7.37 | 5.61 | COc1ccc2c(c1)CC(CNCC(O)c1cccc(Cl)c1)CC2.Cl (stereo not drawn) [Example 4, N-[(7-methoxy-1,2,3,4-tetrahydronaphth-2-yl)methyl]-2-hydroxy-2-(3-chlorophenyl)ethanamine hydrochloride] | 57
6.71 | 6.46 | COc1ccc2c(c1)CC(NCC(O)c1cccc(Cl)c1)CC2.Cl (stereo not drawn) [Example 7 of EP-B-211,721, N-(7-methoxy-1,2,3,4-tetrahydronaphth-2-yl)-2-hydroxy-2-(3-chlorophenyl)ethanamine hydrochloride] | lower than 2
6.96 | 6.96 | Oc1ccc2c(c1)CC(NCC(O)c1cccc(Cl)c1)CC2 (stereo not drawn) [Example 8 of EP-B-211,721] | 1
8.15 | 7.30 | O=C(O)C(=O)O.Oc1ccc2c(c1)CC(CNCC(O)c1cccc(Cl)c1)CC2 (stereo not drawn) [Example 10, N-[(7-hydroxy-1,2,3,4-tetrahydronaphth-2-yl)methyl]-2-hydroxy-2-(3-chlorophenyl)ethanamine oxalate] | about 7
